Source: US6057314A, “Low molecular weight bicyclic thrombin inhibitors” (Biochem Pharma Inc., priority 1997, dated 2000)
Several values for one entry are separate records, joined by “and”; a condition that tells them apart may be missing. Equal values may be shown once. Read-outs that look alike come from different tables or passages of the source.

Legend:
[1] = molecular target: T1, human thrombin (Homo sapiens, UniProt P00734); experiment: dTT assay (fibrin clotting assay, human thrombin and bovine fibrinogen); format: biochemical; settings: Table 1; concentration required to double the clotting time; read-out: dTT IC50
Description: The clotting time was plotted against the inhibitor concentrations and the IC50 was estimated as the inhibitor concentration required to double the clotting time relative to the control.

[2] = molecular target: T1, human thrombin; experiment: Inhibition of amidolytic activity of human thrombin (Ki, fluorogenic substrate Tos-Gly-Pro-Arg-AMC); format: biochemical
Protocol: In an assay to determine the inhibitory dissociation constant, Ki, for a given compound, a chromogenic or fluorogenic substrate of thrombin would be added to a solution containing a test compound and thrombin; the resulting catalytic activity of the enzyme would be spectrophotometrically determined. This type of assay is well known to those skilled in the art.
Determination of K1 Values for Heterocyclics
The steady-state velocity was then measured for a few minutes. The compounds of this invention were also pre-incubated with thrombin for 20 minutes at room temperature before adding the substrate.

[3] = system: carotid artery in rats; experiment: FeCl3 induced carotid arterial injury model (arterial thrombosis) in rats, time to occlusion; format: in vivo, rat (Sprague-Dawley); settings: Table 2
Protocol: Arterial Thrombosis Model
FeCl3 Induced Carotid Arterial Injury Model
Animals were laid on a 37° C. heating pad. The carotid artery was exposed through a midline cervical incision. Careful blunt dissection was used to isolate the vessel from the carotid sheath. […] A temperature probe (Physitemp*MT23/3) was placed between one of the pieces of tubing and the artery. Injury was induced by topical application on the carotid artery above the temperature probe of a small disc (3 mm dia.) of Whatman* No. 1 filter paper previously dipped in a 35% solution of FeCl3 […]. The vessel temperature was monitored for 60 minutes after application of FeCl3 as an indication of blood flow.
The time between the FeCl3 application and the time at which the vessel temperature decreased abruptly (>2.4° C.) was recorded as the time to occlusion of the vessel. Inhibitor compounds were given as an iv bolus (mg/kg) followed immediately by an iv infusion (μg/kg/min. via femoral vein). The dose of inhibitor needed to double the time to occlusion in comparison to control animals in which injury was induced in the absence of inhibitor was determined.

[4] = Table 1, read-out: Ki (inhibitory dissociation constant for human thrombin)
[5] = ivb + inf 0.75-50 (iv bolus mg/kg, infusion μg/kg/min)

Row | Ki ([2]; Table 2, read-out: Ki) | Compound | M.O.T (min)+/-sem [3, 5] | other results
1 | 30 nM | N=C(N)NCCCC(NC(=O)[C@@H]1CSC[C@H]2CC[C@@H](Cc3ccccc3)C(=O)N21)C(=O)c1nccs1 (single isomer, unassigned) [Compound 0925b] | – | –
2 | 5 nM and 8 nM | N=C(N)NCCCC(NC(=O)[C@@H]1CS[C@@H]2CC[C@@H](Cc3ccccc3)C(=O)N21)C(=O)c1nccs1 (stereo partly drawn) [Compound 0245, 6-Benzyl-5-oxo-hexahydro-thiazolo[3,2-a]pyridine-3-carboxylic acid[4-guanidino-1-(thiazole-2-carbonyl)butyl]-amide] | 22.6 ± 2.6 min | M.O.T (min)+/-sem ([3]; ivb + inf 0.5-30 (iv bolus mg/kg, infusion μg/kg/min)): 27 ± 3 min
3 | 160 nM | N=C(N)NCCCC(NC(=O)[C@@H]1CSC[C@H]2CC[C@@H](CCc3ccccc3)C(=O)N21)C(=O)c1nccs1 (single isomer, unassigned) [Compound 0940b] | – | –
4 | 45 nM | N=C(N)NCCCC(NC(=O)C1CSC2CCC(NC(=O)CCc3ccccc3)C(=O)N21)C(=O)c1nccs1 (stereo not drawn) [0315a + b] | – | –
5 | 220 nM | N=C(N)NCCCC(NC(=O)[C@@H]1CSC2CC[C@H](NC(=O)CCc3ccccc3)C(=O)N21)C(=O)c1nccs1 (single isomer, unassigned) [Compound 0305a] | – | –
6 | 16 nM | N=C(N)NCCCC(NC(=O)[C@@H]1CSC[C@H]2CC[C@@H](CCc3ccccc3)C(=O)N21)C(=O)c1nccs1 (single isomer, unassigned) [Compound 0940a] | 15.2 ± 0.82 min | –
7 | 1000 nM | N=C(N)NCCCC(NC(=O)[C@@H]1CS(=O)(=O)C[C@H]2CC[C@@H](Cc3ccccc3)C(=O)N21)C(=O)c1nccs1 (single isomer, unassigned) [Compound 0950b] | – | –
8 | 500 nM | Cn1ccnc1C(=O)C(CCCNC(=N)N)NC(=O)[C@@H]1CS[C@@H]2CC[C@@H](Cc3ccccc3)C(=O)N21 (stereo partly drawn) [Compound 0255, 6-Benzyl-5-oxo-hexahydro-thiazolo[3,2-a]pyridine-3-carboxylic acid[4-guanidino-1-(1-methyl-1H imidazole-2-carbonyl)butyl]-amide] | – | –
9 | 7 nM | N=C(N)NCCCC(NC(=O)[C@@H]1CSC[C@H]2CC[C@@H](Cc3ccccc3)C(=O)N21)C(=O)c1nccs1 (single isomer, unassigned) [Compound 0925a] | 20.3 ± 3.5 min | –
10 | 12000 nM | N=C(N)NCCCC(NC(=O)[C@@H]1CSC2CC[C@H](NC(=O)CCc3ccccc3)C(=O)N21)C(=O)c1nccs1 (single isomer, unassigned) [Compound 0305b] | – | –
11 | 1500 nM | N=C(N)NCCCC(NC(=O)C1CSC2CCC(N3C(=O)c4ccccc4C3=O)C(=O)N21)C(=O)c1nccs1 (single isomer, unassigned) [Compound 0295a] | 20 ± 1 min | –
12 | 120 nM | N=C(N)NCCCC(NC(=O)[C@@H]1CSCC2CC[C@H](Cc3ccccc3)C(=O)N21)C(=O)c1nccs1 (stereo partly drawn) [Compound 0935, 7-Benzyl-6-oxo-octahydro-pyrido[2,1-c][1,4]thiazine-4-carboxylic acid[4-guanidino-1-(thiazole-2-carbonyl)butyl]-amide] | – | –
13 | 18 nM | C[C@]12CC[C@@H](Cc3ccc4nc(C(F)(F)F)ccc4c3)C(=O)N1[C@H](C(=O)NC(CCCNC(=N)N)C(=O)c1nc3ccccc3s1)CS2 (stereo partly drawn) [Compound 0240, 8a-Methyl-5-oxo-6-(2-trifluoromethyl-quinolin-6-ylmethyl)-hexahydro-thiazolo[3,2-a]pyridine-3-carboxylic acid[1-(benzothiazole-2-carbonyl)-4-guanidino-butyl]-amide] | 17 ± 2.6 min | –
14 | 150 nM | N=C(N)NCCCC(NC(=O)[C@@H]1CS(=O)(=O)C[C@H]2CC[C@@H](Cc3ccccc3)C(=O)N21)C(=O)c1nccs1 (single isomer, unassigned) [Compound 0950a] | – | –
15 | 10 nM | N=C(N)NCCCC(NC(=O)C1CSC2CCC(NC(=O)CCc3ccccc3)C(=O)N21)C(=O)c1nccs1 (stereo not drawn) [Compound 0315b] | 30.33 ± 8.4 min | –
16 | 10 nM | N=C(N)NCCCC(NC(=O)[C@@H]1CSCC2CC[C@@H](Cc3ccccc3)C(=O)N21)C(=O)c1nccs1 (stereo partly drawn) [0925a + b] | 19.6 ± 0.2 min | –

Continued, molecule first:

Row | Compound | Ki ([2]; Table 2, read-out: Ki) | M.O.T (min)+/-sem [3, 5] | other results
17 | COC(=O)CCC(=O)C(CCCNC(=N)N)NC(=O)[C@@H]1CSC2CC[C@@H](Cc3ccccc3)C(=O)N21 (stereo partly drawn) [Compound 0100, 6S-benzylhexahydro-5-oxo-5H-thiazolo[3,2-a]pyridine-3R-carboxamido(propylcarbmethoxyketoarginine)] | – | – | IC50 [1]: 165 µM; Ki [2, 4]: 19000 nM
18 | CC12CCC(Cc3ccc4nc(C(F)(F)F)ccc4c3)C(=O)N1C(C(=O)NC(CCCNC(=N)N)C(=O)c1nccs1)CS2 (stereo not drawn) [Compound 0285, 8a-Methyl-5-oxo-6-(2-trifluoromethyl-quinolin-6-ylmethyl)-hexahydro-thiazolo[3,2-a]pyridine-3-carboxylic acid[4-guanidino-1-(thiazole-2-carbonyl)-butyl]-amide] | – | 11.33 ± 1.34 min | –
19 | CC12CCC(CCc3ccccc3)C(=O)N1C(C(=O)NC(CCCNC(=N)N)C(=O)c1nc3ccccc3s1)CS2 (stereo not drawn) [Compound 0225, 8a-Methyl-5-oxo-6-phenethyl-hexahydro-thiazolo[3,2-a]pyridine-3-carboxylic acid[1-(benzothiazole-2-carbonyl)-4-guanidino-butyl]-amide] | – | 23 ± 7 min | –
20 | N=C(N)NCCCC(NC(=O)[C@@H]1CC[C@H]2CN(C(=O)CCc3ccccc3)CC(=O)N21)C(=O)c1nccs1 (stereo partly drawn) [Compound 0340, 4-Oxo-2-(3-phenyl-propionyl)-octahydro-pyrrolo[1,2-a]-pyrazine-6-carboxylic acid [4-guanidino-1-(thiazole-2-carbonyl)-butyl]-amide] | 0.6 nM | – | M.O.T (min)+/-sem ([3]; ivb + inf 0.25-20 (iv bolus mg/kg, infusion μg/kg/min)): 36+/-9,6 min
21 | N=C(N)NCCCC(NC(=O)[C@@H]1CS[C@@H]2CC[C@@H](CCCC3CCCCC3)C(=O)N21)C(=O)c1nccs1 (single isomer, unassigned) [Compound 0265b] | 18 nM | 14.83 ± 2.3 min | –
22 | N=C(N)NCCCC(NC(=O)[C@@H]1CS[C@H]2CC[C@@H](Cc3ccccc3)C(=O)N21)C(=O)c1nc2ccccc2s1 (stereo partly drawn) [Compound 0210, 6-Benzyl-5-oxo-hexahydro-thiazolo[3,2-a]pyridine-3-carboxylic acid[1-(benzothiazole-2-carbonyl)-4-guanidino-butyl]-amide] | 8 nM | 20.13 ± 3.4 min | –
23 | N=C(N)NCCCC(NC(=O)[C@@H]1CS[C@@H]2CC[C@@H](CCCC3CCCCC3)C(=O)N21)C(=O)c1nccs1 (single isomer, unassigned) [Compound 0265a] | 4 nM | 21.5 ± 10 min | –
24 | N=C(N)NCCCC(NC(=O)[C@@H]1CSCC2CCCC(=O)N21)C(=O)c1nccs1 (stereo partly drawn) [Compound 0915, 6-Oxo-octahydro-pyrido[2,1-c][1,4]thiazine-4-carboxylic acid[4-guanidino-1-(thiazole-2-carbonyl)-butyl]-amide] | 1600 nM | 15+/-1,3 min | –
25 | N=C(N)NCCCC(NC(=O)[C@@H]1CSC2CC[C@@H](CC3CCCCC3)C(=O)N21)C(=O)CCC(=O)N[C@@H](Cc1ccccc1)C(=O)N[C@@H](CCCNC(=N)N)C(N)=O (stereo partly drawn) [Compound 0090, 6S-cyclohexylmethylhexahydro-5-oxo-5H-thiazolo[3,2-a]pyridine-3R-carboxamido((propylketo)Arg--Phe--Arg--NH2)] | – | – | IC50 [1]: 0.33 µM; Ki [2, 4]: 31 nM
26 | N=C(N)NCCCC(NC(=O)[C@@H]1CSC2CC[C@@H](Cc3ccccc3)C(=O)N21)C(=O)CCC(=O)O (stereo partly drawn) [Compound 0095, 6S-benzylhexahydro-5-oxo-5H-thiazolo[3,2-a]pyridine-3R-carboxamido((propanoic acid)ketoarginine)] | – | – | Ki [2, 4]: 26000 nM
27 | N=C(N)NCCCC(NC(=O)C1CSC2CCC(N3C(=O)c4ccccc4C3=O)C(=O)N21)C(=O)c1nccs1 (single isomer, unassigned) [Compound 0295b] | – | 19 ± 2.7 min | –
28 | CC12CCC(Cc3ccccc3)C(=O)N1C(C(=O)NC(CCCNC(=N)N)C(=O)c1nccs1)CS2 (stereo not drawn) [Compound 0260, 6-Benzyl-8a-methyl-5-oxo-hexahydro-thiazolo[3,2-a]pyridine-3-carboxylic acid[4-guanidino-1-(thiazole-2-carbonyl)-butyl]-amide] | – | 14.83 ± 0.2 min | –
29 | Cc1cnc(C(=O)C(CCCNC(=N)N)NC(=O)[C@@H]2CC[C@H]3CN(C(=O)CCc4ccccc4)CC(=O)N32)s1 (stereo partly drawn) [Compound 0345, 4-Oxo-2-(3-phenyl-propionyl)-octahydro-pyrrolo[1,2-a]pyrazine-6-carboxylic acid[4-guanidino-1-(5-methyl-thiazole-2-carbonyl)-butyl]-amide] | 2 nM | 50 ± 5.86 min | –
